Our source for the IC50 values is patent US20250179073A1, “TRICYCLIC HETEROCYCLE COMPOUNDS AS IAP ANTAGONISTS” (Ascentage Pharma (Suzhou) Co., Ltd., priority 2022, published 2025).

By IC50 is commonly meant the concentration that gives 50% inhibition.

For this experiment, the system named is MDA-MB-231 cells. The experiment in a line: Cell proliferation assay (CellTiter-Glo), MDA-MB-231. To be noted: Homo sapiens, MDA-MB-231, 72 h, 72 h treatment, Celltiter-Glo luminescence. It is filed as cell-based. The method, then:
Example 238: Cell Proliferation Assay
MDA-MB-231 and EVSA-T cells (10000 cells/well) were plated onto 96-well plates (Corning, Cat #3917) in 95 μL of medium (RPMI-1640 containing 10% FBS and MEM containing 10% FBS, respectively). Compounds with various concentrations ([…]) were added to the wells. After treatment for 72 h, 30 μL of Celltiter-Glo reagent (Promega, Cat #G7573) was added and incubated at room temperature for 15 min, then the luminescent signal was determined using a microplate reader (Biotek, SynergyH1). The inhibitor dose-response curves were analyzed using normalized IC50 regression curve fitting with control based normalization.

As for `C[C@@H]1CN(CC(=O)N2CC(C)(C)c3c2cc(Cc2ccc(F)cc2)c2nc(C(F)(F)F)cn32)C(Cn2ccnc2C(F)(F)F)CN1` (stereo in doubt) [Compound 177, 1-(4-(4-fluorobenzyl)-8,8-dimethyl-2-(trifluoromethyl)-7,8-dihydro-6H-imidazo[1,2-a]pyrrolo[2,3-e]pyridin-6-yl)-2-((2S,5R)-5-methyl-2-((2-(trifluoromethyl)-1H-imidazol-1-yl)methyl)piperazin-1-yl)ethan-1-one], the IC50 was found to be 320 nM.

Turning to `C[C@@H]1CN(CC(=O)N2CC(C)(C)c3c2cc(Cc2ccc(F)cc2)c2ncnn32)C(CN2CCN(CC#N)C3CC32)CN1` (stereo in doubt) [Compound 213, 2-(5-(((2S,5R)-1-(2-(4-(4-fluorobenzyl)-8,8-dimethyl-7,8-di hydro-6H-pyrrolo[2,3-e][1,2,4]triazolo[1,5-a]pyridin-6-yl)-2-oxoethyl)-5-methylpiperazin-2-yl)methyl)-2,5-diazabicyclo[4.1.0]heptan-2-yl)acetonitrile], the concentration for half-maximal inhibition (IC50) was found to be 560 nM.

As to `C[C@@H]1CN(CC(=O)N2CC(C)(C)c3c2cc(Cc2ccc(F)cc2)c2cnc(C4CC4)n32)[C@@H](CN2CCOC[C@H]2C)CN1` [Compound 3, 1-(1-cyclopropyl-4-(4-fluorobenzyl)-8,8-dimethyl-7,8-dihydro-6H-imidazo[1,5-a]pyrrolo[2,3-e]pyridin-6-yl)-2-((2R,5R)-5-methyl-2-(((R)-3-methylmorpholino)methyl)piperazin-1-yl)ethan-1-one], the IC50 was determined as 59 nM.

Turning to `C[C@@H]1CN(CC(=O)N2CC(C)(C)c3c2cc(C(O)c2ccc(F)cc2F)c2ncnn32)[C@@H](CN2CCOC[C@H]2C)CN1` (stereo partly drawn) [Compound 50, 1-(4-((2,4-difluorophenyl)(hydroxy)methyl)-8,8-dimethyl-7,8-dihydro-6H-pyrrolo[2,3-e][1,2,4]triazolo[1,5-a]pyridin-6-yl)-2-((2R,5R)-5-methyl-2-(((R)-3-methylmorpholino)methyl)piperazin-1-yl)ethan-1-one], the IC50 is over 10000 nM.

With `C[C@@H]1CN(CC(=O)N2CC(C)(C)c3c2cc(Cc2ccc(F)cc2)c2ncnn32)[C@@H](CN2CCC(F)(F)C[C@H]2C)CN1` [Compound 75, 2-((2R,5R)-2-(((R)-4,4-difluoro-2-methylpiperidin-1-yl)methyl)-5-methylpiperazin-1-yl)-1-(4-(4-fluorobenzyl)-8,8-dimethyl-7,8-dihydro-6H-pyrrolo[2,3-e][1,2,4]triazolo[1,5-a]pyridin-6-yl)ethan-1-one], the 50% inhibitory concentration (IC50) was found to be 87 nM.

On to `C[C@@H]1CN(CC(=O)N2CC(C)(C)c3c2cc(Cc2ccc(F)cc2)c2ncnn32)[C@@H](CN2CC3CC2CO3)CN1` (stereo partly drawn) [Compound 78, 2-((2R,5R)-2-((2-oxa-5-azabicyclo[2.2.1]heptan-5-yl)methyl)-5-methylpiperazin-1-yl)-1-(4-(4-fluorobenzyl)-8,8-dimethyl-7,8-dihydro-6H-pyrrolo[2,3-e][1,2,4]triazolo[1,5-a]pyridin-6-yl)ethan-1-one], for which the IC50 is 120 nM.

Consider `Cc1nccn1C[C@H]1CN[C@H](C)CN1CC(=O)N1CC(C)(C)c2c1cc(Cc1ccc(F)cc1)c1ncnn21` [Compound 91, 1-(4-(4-fluorobenzyl)-8,8-dimethyl-7,8-dihydro-6H-pyrrolo[2,3-e][1,2,4]triazolo[1,5-a]pyridin-6-yl)-2-((2R,5R)-5-methyl-2-((2-methyl-1H-imidazol-1-yl)methyl)piperazin-1-yl)ethan-1-one], for which the half-inhibitory concentration (IC50) came to 80 nM.

On to `C[C@@H]1CN(CC(=O)N2CC(C)(C)c3c2cc(Cc2ccc(F)cc2)c2c(Cl)cnn32)[C@@H](CN2CCOC[C@H]2C)CN1` [Compound 106, 1-(3-chloro-4-(4-fluorobenzyl)-8,8-dimethyl-7,8-dihydro-6H-pyrazolo[1,5-a]pyrrolo[2,3-e]pyridin-6-yl)-2-((2R,5R)-5-methyl-2-(((R)-3-methylmorpholino)methyl)piperazin-1-yl)ethan-1-one], for which the 50% inhibitory concentration (IC50) came out at 390 nM.

Take `C[C@@H]1CN(CC(=O)N2CC(C)(C)c3c2cc(Cc2ccc(F)cc2)c2nc(C(=O)O)cn32)[C@@H](CN2CCOC[C@H]2C)CN1` [Compound 117, 4-(4-fluorobenzyl)-8,8-dimethyl-6-(2-((2R,5R)-5-methyl-2-(((R)-3-methylmorpholino)methyl)piperazin-1-yl)acetyl)-7,8-dihydro-6H-imidazo[1,2-a]pyrrolo[2,3-e]pyridine-2-carboxylic acid]: the IC50 was over 10000 nM.

Regarding `CCOC(=O)c1cnn2c3c(cc(Cc4ccc(F)cc4)c12)N(C(=O)CN1C[C@@H](C)NC[C@@H]1CN1CCOC[C@H]1C)CC3(C)C` [Compound 120, ethyl 4-(4-fluorobenzyl)-8,8-dimethyl-6-(2-((2R,5R)-5-methyl-2-(((R)-3-methylmorpholino)methyl)piperazin-1-yl)acetyl)-7,8-dihydro-6H-pyrazolo[1,5-a]pyrrolo[2,3-e]pyridine-3-carboxylate], the 50% inhibitory concentration (IC50) amounted to 400 nM.

On to `Cc1nc(C)n2c3c(cc(Cc4ccc(F)cc4)c12)N(C(=O)CN1C[C@@H](C)NC[C@@H]1CN1CCOC[C@H]1C)CC3(C)C` [Compound 124, 1-(4-(4-fluorobenzyl)-1,3,8,8-tetramethyl-7,8-dihydro-6H-imidazo[1,5-a]pyrrolo[2,3-e]pyridin-6-yl)-2-((2R,5R)-5-methyl-2-(((R)-3-methylmorpholino)methyl)piperazin-1-yl)ethan-1-one], for which the concentration for half-maximal inhibition (IC50) came to 290 nM.

With `Cc1nc(CO)c2c(Cc3ccc(F)cc3)cc3c(n12)C(C)(C)CN3C(=O)CN1C[C@@H](C)NC[C@@H]1CN1CCOC[C@H]1C` [Compound 125, 1-(4-(4-fluorobenzyl)-3-(hydroxymethyl)-1,8,8-trimethyl-7,8-dihydro-6H-imidazo[1,5-a]pyrrolo[2,3-e]pyridin-6-yl)-2-((2R,5R)-5-methyl-2-(((R)-3-methylmorpholino)methyl)piperazin-1-yl)ethan-1-one], the IC50 came out at 200 nM.

As to `C[C@@H]1CN(CC(=O)N2CC(C)(C)c3c2cc(Cc2ccc(F)cc2)c2nc(=O)[nH]n32)[C@@H](CN2CCOC[C@H]2C)CN1` [Compound 131, 4-(4-fluorobenzyl)-8,8-dimethyl-6-(2-((2R,5R)-5-methyl-2-(((R)-3-methylmorpholino)methyl)piperazin-1-yl)acetyl)-7,8-dihydro-1H-pyrrolo[2,3-e][1,2,4]triazolo[1,5-a]pyridin-2(6H)-one], the IC50 is 2740 nM.

As for `C[C@@H]1CN(CC(=O)N2CC(C)(C)c3c2cc(Cc2ccc(F)cc2)c2nnc(N)n32)[C@@H](CN2CCOC[C@H]2C)CN1` [Compound 136, 1-(1-amino-4-(4-fluorobenzyl)-8,8-dimethyl-7,8-dihydro-6H-pyrrolo[2,3-e][1,2,4]triazolo[4,3-a]pyridin-6-yl)-2-((2R,5R)-5-methyl-2-(((R)-3-methylmorpholino)methyl)piperazin-1-yl)ethan-1-one], the concentration for half-maximal inhibition (IC50) was determined as 1390 nM.

On to `C[C@@H]1CN(CC(=O)N2CC(C)(C)c3c2cc(C(=O)c2ccc(F)cc2)c2ncnn32)[C@@H](CN2CCOC[C@H]2C)CN1` [Compound 139, 1-(4-(4-fluorobenzoyl)-8,8-dimethyl-7,8-dihydro-6H-pyrrolo[2,3-e][1,2,4]triazolo[1,5-a]pyridin-6-yl)-2-((2R,5R)-5-methyl-2-(((R)-3-methylmorpholino)methyl)piperazin-1-yl)ethan-1-one], for which the IC50 amounted to 710 nM.
